Experimental findings from US12441762B2, “Hepatitis c virus NS3/4A protease inhibitors” (priority 2019, dated 2025) are described below.

Holding throughout (assay): biochemical
Test [1] deals with T1, wild-type HCV NS3/4A protease (GT1a) (Hepatitis C virus genotype 1a, UniProt P27958, C1185S).
T1 construct: His-tag (cleaved yes); made in house; host or cells: Escherichia coli BL21(DE3), PET28a vector
Type of test: biochemical. Here is the method:
(§1) The HCV GT1a NS3/4A protease gene described in the Bristol Myers Squibb patent was synthesized by GenScript and cloned into a PET28a expression vector. Cys159 was mutated to a serine residue to prevent disulfide bond formation and facilitate crystallization. The D168A gene was engineered using the site-directed mutagenesis protocol from Stratagene. Protein expression and purification were carried out as previously described.
(§2) Km constants for GT1 and D168A protease were previously determined. […] Inner filter effect corrections were applied to the initial velocities (Vo) at each substrate concentration. Vo versus substrate concentration graphs were globally fit to the Michaelis-Menten equation to obtain the Km value.
(§3) For each assay, 2 nM of NS3/4A protease (GT1a and D168A) was pre-incubated at room temperature for 1 h with increasing concentration of inhibitors in assay buffer (50 mM Tris, 5% glycerol, 10 mM DTT, 0.6 mM LDAO, and 4% dimethyl sulfoxide, pH 7.5). Inhibition assays were performed in non-binding surface 96-well black half-area plates (Corning) in a reaction volume of 60 μL. […] Three independent data sets were collected for each inhibitor with each protease construct.

Test [2] has as its system HCV NS3/4A protease D168A variant. Type of test: biochemical, Hepatitis C virus. The conditions noted are these: for Fold Change of D168A Ki with respect to GT1a wild-type: Table S1, value in parentheses. Here is the method:
as §1, §2, §3

For test [3], the target named is T2, HCV NS3/4A protease D168A variant (Hepatitis C virus genotype 1a, UniProt P27958, C1185S/D1194A).
T2 construct: His-tag (cleaved yes); made in house; host or cells: Escherichia coli BL21(DE3), PET28a vector
Type of test: biochemical. The protocol:
as §1, §2, §3

T2 sequence (P27958 1027-1208 C1185S/D1194A): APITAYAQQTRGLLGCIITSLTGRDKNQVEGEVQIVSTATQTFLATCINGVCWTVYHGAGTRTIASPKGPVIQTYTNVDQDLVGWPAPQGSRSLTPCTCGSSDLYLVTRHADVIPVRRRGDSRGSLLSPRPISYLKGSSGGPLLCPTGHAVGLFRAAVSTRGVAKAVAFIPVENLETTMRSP
T1 sequence (P27958 1027-1208 C1185S): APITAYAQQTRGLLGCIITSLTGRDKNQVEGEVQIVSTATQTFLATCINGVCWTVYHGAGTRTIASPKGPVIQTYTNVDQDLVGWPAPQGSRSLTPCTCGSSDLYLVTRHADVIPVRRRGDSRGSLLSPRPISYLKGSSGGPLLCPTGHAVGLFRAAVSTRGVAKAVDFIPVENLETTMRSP

Consider `COc1ccc2nc(C)c(O[C@@H]3C[C@H]4C(=O)N[C@]5(C(=O)NS(=O)(=O)C6(C)CC6)C[C@H]5/C=C\CCCCC[C@H](NC(=O)[C@@H](NC(C)=O)C(C)C)C(=O)N4C3)nc2c1` [Inhibitor P4P5-1A, (2R,6S,13aS,14aR,16aS,Z)-6-((S)-2-Acetamido-3-methylbutanamido)-2-((7-methoxy-3-methylquinoxalin-2-yl)oxy)-N-((1-methylcyclopropyl)sulfonyl)-5,16-dioxo-1,2,3,6,7,8,9,10,11,13a,14,15,16,16a-tetradecahydrocyclopropa[e]pyrrolo[1,2-a][1,4]diazacyclopentadecine-14a(5H)-carboxamide], for which the results for the Ki in test [1] and in test [3] were 11.1 ± 0.5 nM and 141 ± 18 nM, respectively. Further, the “Fold Change of D168A Ki with respect to GT1a wild-type” value (shortened to “Fold Change of D168A Ki”) in test [2] is “(13) fold”.

`CCC1(OC(=O)N[C@H]2CCCCC/C=C\[C@@H]3C[C@@]3(C(=O)NS(=O)(=O)C3(C)CC3)NC(=O)[C@@H]3C[C@@H](Oc4nc5cc(OC)ccc5nc4C)CN3C2=O)CCCC1` [NR01-97, 1-Ethylcyclopentyl ((2R,6S,13aS,14aR,16aS, Z)-2-((7-methoxy-3-methylquinoxalin-2-yl)oxy)-14a-(((1-methylcyclopropyl)sulfonyl)carbamoyl)-5,16-dioxo-1,2,3,5,6,7,8,9,10,11,13a,14,14a,15,16,16a-hexadecahydrocyclopropa[e]pyrrolo[1,2-a][1,4]diazacyclopentadecin-6-yl) carbamate]: the results for the Ki in test [1] and in test [3] were 1.29 ± 0.05 nM and 21.7 ± 2.3 nM, respectively. Moreover, in test [2], the “Fold Change of D168A Ki” value is “(17) fold”. Also, in test [3] (compared to parent compound), the “fold increase in potency against D168A compared to the parent compound” value is about 3 fold.

As for `COC(=O)N[C@H](C(=O)N[C@H]1CCCCC/C=C\[C@@H]2C[C@@]2(C(=O)NS(=O)(=O)C2(C)CC2)NC(=O)[C@@H]2C[C@@H](Oc3nc4cc(OC)ccc4nc3C)CN2C1=O)C1CCCC1` [Inhibitor P4P5-3B, Methyl ((S)-1-cyclopentyl-2-(((2R,6S,13aS,14aR,16aS,Z)-2-((7-methoxy-3-methylquinoxalin-2-yl)oxy)-14a-(((1-methylcyclopropyl)sulfonyl)carbamoyl)-5,16-dioxo-1,2,3,5,6,7,8,9,10,11,13a,14,14a,15,16,16a-hexadecahydrocyclopropa[e]pyrrolo[1,2-a][1,4]diazacyclopentadecin-6-yl)amino)-2-oxoethyl)carbamate], the Ki in test [1] amounted to 3.54 ± 0.13 nM; in test [3], 31.6 ± 2.1 nM. Further, the “Fold Change of D168A Ki” value in test [2] is given as “(9) fold”.

Take `COC(=O)N[C@H](C(=O)N[C@H]1CCCCC/C=C\[C@@H]2C[C@@]2(C(=O)NS(=O)(=O)C2(C)CC2)NC(=O)[C@@H]2C[C@@H](Oc3nc4cc(OC)ccc4nc3C)CN2C1=O)C(C)C` [Inhibitor P4P5-1B, Methyl ((S)-1-(((2R,6S,13aS,14aR,16aS,Z)-2-((7-methoxy-3-methylquinoxalin-2-yl)oxy)-14a-(((1-methylcyclopropyl)sulfonyl)carbamoyl)-5,16-dioxo-1,2,3,5,6,7,8,9,10,11,13a,14,14a,15,16,16a-hexadecahydrocyclopropa[e]pyrrolo[1,2-a][1,4]diazacyclopentadecin-6-yl)amino)-3-methyl-1-oxobutan-2-yl)carbamate]: the values for the Ki in test [1] and in test [3] were 13 ± 0.8 nM and 102 ± 6.8 nM, respectively. Also, the “Fold Change of D168A Ki” value in test [2] is given as “(8) fold”.

In turn, `COC(=O)NC1(C(=O)N[C@H]2CCCCC/C=C\[C@@H]3C[C@@]3(C(=O)NS(=O)(=O)C3(C)CC3)NC(=O)[C@@H]3C[C@@H](Oc4nc5cc(OC)ccc5nc4C)CN3C2=O)CCCC1` [Inhibitor P4P5-5, Methyl (1-(((2R,6S,13aS,14aR,16aS,Z)-2-((7-methoxy-3-methylquinoxalin-2-yl)oxy)-14a-(((1-methylcyclopropyl)sulfonyl)carbamoyl)-5,16-dioxo-1,2,3,5,6,7,8,9,10,11,13a,14,14a,15,16,16a-hexadecahydrocyclopropa[e]pyrrolo[1,2-a][1,4]diazacyclopentadecin-6-yl)carbamoyl)cyclopentyl)carbamate] gave an inhibitory constant (Ki) in test [1] of 31 ± 2.74 nM. In addition, in test [2], the “fold loss in potency against D168A relative to WT” value was determined as 30 fold and the “Fold Change of D168A Ki” value is reported as “(30) fold”. For the same compound, the inhibition constant Ki in test [3] was 931 ± 70 nM.
